Measurements: paper PMC12442081, “Combating Fuel Biocontamination: Tailored Antimicrobial Peptides and an Innovative Delivery Strategy” (ACS Applied Bio Materials, 2025)

How the values were obtained:
HR+BL+DN coculture = assay type: cell-based, H. resinae + B. licheniformis + D. nishinomiyaensis
Method: (§1) All of the bacterial species were grown overnight at 37 °C in LB broth. 10^7 CFU/mL of cells were resuspended in fresh culture and grown until the mid log phase. , The bacterial cells were adjusted to a concentration of 5 × 10^5 CFU/mL to quantify the MIC. Equal volumes of the respective bacterial cultures were incubated with the serially diluted peptides in 96-well microtiter plate and incubated overnight at 37 °C in ambient air. Microorganisms without peptides were treated as the positive control, while uninoculated broth was used as the negative control. The MIC was taken as the lowest peptide concentration at which observable bacteria growth was inhibited, as measured by a microplate reader (Biotek Synergy H1 microplate reader). Experiments were performed in triplicates, and the mean MIC values were determined. A similar study was performed to understand the effect of peptide purity, i.e., ranging from 70 to 95%, on the peptide MIC. […]
(§2) fresh medium at equal proportions (v/v). Multiple combinations of microbial cocultures were prepared […]
(§3) Table S2. Schematic representation of the microbial cocultures grown in lab.
(§4) Bacterial clusters Fungal clusters
(§5) Gram-positive Gram-negative
(§6) Actinobacteria/DN Firmicutes/BL Proteobacteria/SP Ascomycota/HR […]
(§7) (b) The three upper panels […]
(§8) controlling the growth of microbial cocultures.

B. licheniformis = assay type: cell-based, Bacillus licheniformis; conditions: 2 h
Method: (§9) The stability of the peptides against one Gram-positive (B. licheniformis) and Gram-negative (S. paucimobilis) bacteria was assessed by determining their MIC in chymotrypsin (protease), serum, and salt (NaCl). The experiments were adopted from Selvarajan et.al. The fold change in MIC with respect to the control was calculated and determined for each peptide against the microbial clusters.
(§10) To determine the susceptibility of the engineered peptides, which are abundant in Trp, to protease degradation, chymotrypsin, which cleaves Tyr, Phe, and Trp at physiological pH was chosen as the model protease. The protocol described by Wang et.al. (2014) was used with slight modifications. Peptides were incubated with chymotrypsin at a molar ratio of 40:1 (peptide: protease) in 10 mM PBS buffer (pH7.4) at 37 °C, and samples were analyzed after 2 h. The enzyme reaction was terminated by incubating the samples at 80 °C for 10 min. The incubated peptide mixtures were then serially diluted in 96-well plates to determine the MIC values of the microbial strains.
(§11) The stability of the peptides in the presence of the serum was tested using a 10% fetal bovine serum (heat inactivated).
(§12) We also studied the effects of 600 mM NaCl (in vitro) and natural seawater (NSW) on the MICs of the engineered peptides.

HR+DN+SP coculture = assay type: cell-based, H. resinae + D. nishinomiyaensis + S. paucimobilis
Method: as §1, §2, §3, §4, §5, §6, §7, §8

S. paucimobilis = assay type: cell-based, Sphingomonas paucimobilis; conditions: 2 h
Method: as §9, §10, §11, §12

BL+DN coculture = assay type: cell-based, B. licheniformis + D. nishinomiyaensis
Method: as §1, §2, §3, §4, §5, §6, §7, §8

[1] = system: Sphingomonas paucimobilis (SP); assay type: cell-based
In short: (§13)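 Overnight LB cultures, 37 °C → mid-log → 5 × 10^5 CFU/mL; 1:1 with serially diluted peptides, o/n 37 °C, ambient air. MIC = lowest conc. inhibiting growth (plate reader). n = 3, mean reported.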

[2] = system: Bacillus licheniformis (BL) ATCC 14580; assay type: cell-based; conditions: ATCC 14580
In short: as §13

[3] = system: Roseomonas mucosa (RM) ATCC BAA-692; assay type: cell-based
In short: as §13

HR+DN coculture = assay type: cell-based, H. resinae + D. nishinomiyaensis
Method: as §1, §2, §3, §4, §5, §6, §7, §8

HR+SP coculture = assay type: cell-based, H. resinae + S. paucimobilis
Method: as §1, §2, §3, §4, §5, §6, §7, §8

SP+BL coculture = assay type: cell-based, S. paucimobilis + B. licheniformis
Method: as §1, §2, §3, §4, §5, §6, §7, §8

DN+SP coculture = assay type: cell-based, D. nishinomiyaensis + S. paucimobilis
Method: as §1, §2, §3, §4, §5, §6, §7, §8

HR+BL+SP coculture = assay type: cell-based, H. resinae + B. licheniformis + S. paucimobilis
Method: as §1, §2, §3, §4, §5, §6, §7, §8

HR+BL coculture = assay type: cell-based, H. resinae + B. licheniformis
Method: as §1, §2, §3, §4, §5, §6, §7, §8

[4] = system: Macrococcus caseolyticus (MC) ATCC 13548; assay type: cell-based
In short: as §13

[5] = system: Micrococcus yunnanensis (MY) ATCC 12698; assay type: cell-based
In short: as §13

[6] = system: Dermacoccus nishinomiyaensis (DN) ATCC 29093; assay type: cell-based
In short: as §13

[7] = system: Pseudomonas aeruginosa (PA) ATCC 39327; assay type: cell-based; conditions: ATCC 39327
In short: as §13

[8] = system: Kocuria rosea (KR) ATCC 186; assay type: cell-based
In short: as §13

[9] = system: Hormoconis resinae (HR) ATCC 20267; assay type: cell-based
Method: All of the bacterial species were grown overnight at 37 °C in LB broth. 10^7 CFU/mL of cells were resuspended in fresh culture and grown until the mid log phase. , The bacterial cells were adjusted to a concentration of 5 × 10^5 CFU/mL to quantify the MIC. Equal volumes of the respective bacterial cultures were incubated with the serially diluted peptides in 96-well microtiter plate and incubated overnight at 37 °C in ambient air. Microorganisms without peptides were treated as the positive control, while uninoculated broth was used as the negative control. The MIC was taken as the lowest peptide concentration at which observable bacteria growth was inhibited, as measured by a microplate reader (Biotek Synergy H1 microplate reader). Experiments were performed in triplicates, and the mean MIC values were determined. A similar study was performed to understand the effect of peptide purity, i.e., ranging from 70 to 95%, on the peptide MIC.
The same experimental procedures that were conducted for the antibacterial assay were used to determine the MIC of the peptides against the fungal strain, H. resinae.

| SMILES | MIC (HR+BL+DN coculture) [µM] | MIC under different treatments (B. licheniformis) [µM] | MIC (HR+DN+SP coculture) [µM] | MIC under different treatments (S. paucimobilis) [µM] | MIC (BL+DN coculture) [µM] | MIC [1] [µM] | MIC [2] [µM] | MIC [3] [µM] | MIC (HR+DN coculture) [µM] | MIC (HR+SP coculture) [µM] | MIC (SP+BL coculture) [µM] | MIC (DN+SP coculture) [µM] | MIC (HR+BL+SP coculture) [µM] | MIC (HR+BL coculture) [µM] | MIC [4] [µM] | MIC [5] [µM] | MIC [6] [µM] | MIC [7] [µM] | MIC [8] [µM] | MIC [9] [µM] |
| --- | --- | --- | --- | --- | --- | --- | --- | --- | --- | --- | --- | --- | --- | --- | --- | --- | --- | --- | --- | --- |
| CC[C@H](C)[C@H](N)C(=O)N[C@@H](CC(C)C)C(=O)N1CCC[C@H]1C(=O)N[C@@H](Cc1c[nH]c2ccccc12)C(=O)N[C@@H](CCCCN)C(=O)N[C@@H](Cc1c[nH]c2ccccc12)C(=O)N1CCC[C@H]1C(=O)N[C@@H](Cc1c[nH]c2ccccc12)C(=O)N[C@@H](Cc1c[nH]c2ccccc12)C(=O)N1CCC[C@H]1C(=O)N[C@@H](Cc1c[nH]c2ccccc12)C(=O)N[C@@H](CCCCN)C(=O)N[C@@H](CCCNC(=N)N)C(=O)O [P3] | 7.5 | ≤ 4 | 15 | ≤ 4 | 30 | 1.9 | 1.9 | 1.9 | 0.9 | 0.9 | 1.87 | 3.7 | 3.7 | 0.9 | – | – | – | – | – | – |
| CC[C@H](C)[C@H](N)C(=O)N[C@@H](CC(C)C)C(=O)N1CCC[C@H]1C(=O)N[C@@H](Cc1ccccc1)C(=O)N[C@@H](CCCCN)C(=O)N[C@@H](Cc1c[nH]c2ccccc12)C(=O)N1CCC[C@H]1C(=O)N[C@@H](Cc1c[nH]c2ccccc12)C(=O)N[C@@H](Cc1c[nH]c2ccccc12)C(=O)N1CCC[C@H]1C(=O)N[C@@H](Cc1c[nH]c2ccccc12)C(=O)N[C@@H](CCCNC(=N)N)C(=O)N[C@@H](CCCNC(=N)N)C(=O)O [P11] | 1.87 | ≤ 4 | 3.7 | ≤ 4 | 60 | 1.9 | 1.9 | – | 1.87 | 30 | 120 | 30 | 1.87 | 3.7 | 0.9 | 0.9 | 0.9 | 1.9 | – | – |
| CC[C@H](C)[C@H](N)C(=O)N[C@@H](CC(C)C)C(=O)N[C@@H](Cc1ccc(O)cc1)C(=O)N[C@@H](Cc1c[nH]c2ccccc12)C(=O)N[C@@H](CCCCN)C(=O)N[C@@H](Cc1c[nH]c2ccccc12)C(=O)N1CCC[C@H]1C(=O)N[C@@H](Cc1c[nH]c2ccccc12)C(=O)N[C@@H](Cc1c[nH]c2ccccc12)C(=O)N1CCC[C@H]1C(=O)N[C@@H](Cc1c[nH]c2ccccc12)C(=O)N[C@@H](CCCNC(=N)N)C(=O)N[C@@H](CCCNC(=N)N)C(=O)O [P17] | 0.9 | ≤ 4 | 7.5 | ≤ 4 | 1.87 | 0.9 | 0.9 | – | 0.9 | 7.5 | 7.5 | 15 | 0.9 | 7.5 | 1.9 | 0.9 | 0.9 | 3.8 | 1.9 | 3.8 |
